Laboratory results published in ChEMBL document CHEMBL4808177, “Use of Intramolecular 1,5-Sulfur-Oxygen and 1,5-Sulfur-Halogen Interactions in the Design of N-Methyl-5-aryl-N-(2,2,6,6-tetramethylpiperidin-4-yl)-1,3,4-thiadiazol-2-amine SMN2 Splicing Modulators” (J Med Chem, 2021).
Converted amounts (≈) assume the structure as drawn.

Legend:
[1] = Volume of distribution at steady state in Sprague-Dawley rat at 1 mg/kg, iv and 3 mg/kg, po measured up to 7 hrs by HPLC-MS/MS analysis; format: ADME, organism-based; conditions: in vivo, read-out: Vdss
[2] = AUC (extrapolated) in Sprague-Dawley rat at 3 mg/kg, po measured up to 7 hrs by HPLC-MS/MS analysis; format: ADME, organism-based; set-up: route oral, dose 3 mg/kg, time <=7; conditions: in vivo
[3] = Half life in Sprague-Dawley rat at 1 mg/kg, iv and 3 mg/kg, po measured up to 7 hrs by HPLC-MS/MS analysis; format: ADME, organism-based; conditions: in vivo
[4] = Modulation of SMN2 splicing activity in myoblast cell line derived from the SMNdelta7 mouse model assessed as increase in SMN level treated for 24 hrs by ELISA relative to control; format: functional, Primary myoblast
[5] = Cmax in Sprague-Dawley rat at 1 mg/kg, iv and 3 mg/kg, po measured up to 7 hrs by HPLC-MS/MS analysis; format: ADME, organism-based; set-up: dose 3 mg/kg, time <=7; conditions: in vivo
[6] = Apparent permeability across basolateral to apical side in human Caco-2 cells; format: ADME, cell-based
[7] = Clearance in Sprague-Dawley rat at 1 mg/kg, iv and 3 mg/kg, po measured up to 7 hrs by HPLC-MS/MS analysis; format: ADME, organism-based; conditions: in vivo
[8] = Apparent permeability across apical to basolateral side in human Caco-2 cells; format: ADME, cell-based
[9] = Modulation of SMN2 splicing in myoblast cell line derived from the SMNdelta7 mouse model assessed as increase in SMN level measured as fold activation treated for 24 hrs by ELISA; format: functional, Primary myoblast
[10] = Solubility of the compound at pH 6.8 by high-throughput miniaturized shake flask solubility assay; format: physicochemical; conditions: buffer
[11] = Intrinsic clearance in rat liver microsomes; format: ADME, Microsome; conditions: read-out: CLH
[12] = Apparent permeability from apical to basolateral side in MDCK-MDR1 cells; format: ADME, cell-based, Canis lupus familiaris; conditions: dog
[13] = Apparent permeability from basolateral to apical side in MDCK-MDR1 cells; format: ADME, cell-based, Canis lupus familiaris; conditions: dog
[14] = Intrinsic clearance in mouse liver microsomes; format: ADME, Microsome; conditions: read-out: CLH
[15] = Drug uptake in Sprague-Dawley rat brain at 3 mg/kg, po measured after 7 hrs by HPLC-MS/MS analysis; format: ADME, organism-based; conditions: read-out: Drug uptake
[16] = Drug uptake in SMN C/+ allele mouse brain at 50 mg/kg, po measured after 4 hrs; format: ADME, organism-based; conditions: read-out: Drug uptake
[17] = In vivo modulation of SMN2 splicing activity in SMN C/+ allele mouse model assessed as fold increase in full length SMN protein level in brain at 50 mg/kg, po once daily for 5 days relative to control; format: functional; conditions: time 5 day
[18] = Drug uptake in SMN C/+ allele mouse plasma at 50 mg/kg, po measured after 4 hrs; format: ADME, organism-based

SMILES	fold change (FC) [4]	EC50 [9] [nM]	solubility thermodynamic [10] [µM]	microsomal CLint [11] [µL/min/mg]	other results
CN(c1nnc(-c2ccc(-c3cnn(C)c3)cc2O)s1)C1CC(C)(C)NC(C)(C)C1	3.1	32	–	–	Vd [1]: 7 L/kg; AUC at 7 h [2]: 0.554 µM·h; half-life [3]: 2 h; Cmax [5]: 50 nM; Papp B→A [6]: 2.5 ×10⁻⁶ cm/s; clearance [7]: 71 mL/min/kg; Papp A→B [8]: 2.4 ×10⁻⁶ cm/s
CN(c1nnc(-c2ccc(-n3cccn3)cc2)s1)C1CC(C)(C)NC(C)(C)C1	2.8	1100	–	–	–
CN(c1nnc(-c2ccc(-c3cnn(C)c3)cn2)s1)C1CC(C)(C)NC(C)(C)C1	2.3	680	–	–	–
COc1cc(-n2cccn2)ccc1-c1nnc(N(C)C2CC(C)(C)NC(C)(C)C2)s1	2.5	62	–	–	Vd [1]: 10.9 L/kg; AUC at 7 h [2]: 0.895 µM·h; half-life [3]: 1.9 h; Cmax [5]: 221 nM; Papp B→A [6]: 6.9 ×10⁻⁶ cm/s; clearance [7]: 72 mL/min/kg; Papp A→B [8]: 13.8 ×10⁻⁶ cm/s
CN(c1nnc(-c2ccc(C#N)cc2O)s1)C1CC(C)(C)NC(C)(C)C1	1.9	8800	–	–	–
COc1cc(C#N)ccc1-c1nnc(N(C)C2CC(C)(C)NC(C)(C)C2)s1	2.2	1000	–	–	–
CN(c1ccc(-c2cc3ccccc3s2)nn1)C1CC(C)(C)NC(C)(C)C1	–	–	980 (≈ 373 µg/mL)	23	–
CN(c1nnc(-c2ccc(-c3ccn(C)c(=O)c3)cc2O)s1)C1CC(C)(C)NC(C)(C)C1	3.4	61	–	–	Vd [1]: 10.7 L/kg; AUC at 7 h [2]: 0.227 µM·h; half-life [3]: 1.3 h; Cmax [5]: 38 nM; Papp B→A [6]: 6.8 ×10⁻⁶ cm/s; clearance [7]: 163 mL/min/kg; Papp A→B [8]: 3.7 ×10⁻⁶ cm/s
COc1cc(-c2ccn(C)c(=O)c2)ccc1-c1nnc(N(C)C2CC(C)(C)NC(C)(C)C2)s1	3.2	130	–	–	–
CN(c1nnc(-c2c(O)cc(-c3cn[nH]c3)cc2F)s1)C1CC(C)(C)NC(C)(C)C1	2.6	6	–	–	Papp A→B [12]: 10 ×10⁻⁶ cm/s; solubility [10]: Insoluble; Papp B→A [13]: 41 ×10⁻⁶ cm/s; microsomal CLint [14]: 50 µL/min/mg
CN(c1nnc(-c2ccc(-c3cn[nH]c3)cc2Cl)s1)C1CC(C)(C)NC(C)(C)C1	2.5	34	44000 (≈ 19000 µg/mL)	24	Papp A→B [12]: 3 ×10⁻⁶ cm/s; concentration at 7 h [15]: 240 nM; Papp B→A [13]: 12 ×10⁻⁶ cm/s
CN(c1nnc(-c2ccc(-c3cn[nH]c3)cc2O)s1)C1CC(C)(C)NC(C)(C)C1	2.5	400	–	–	–
CN(c1nnc(-c2cc(F)c(-c3cn[nH]c3)cc2F)s1)C1CC(C)(C)NC(C)(C)C1	3.1	20	122 (≈ 52.8 µg/mL)	48	Papp A→B [12]: 3 ×10⁻⁶ cm/s; concentration at 7 h [15]: 141 nM; Papp B→A [13]: 16 ×10⁻⁶ cm/s
CN(c1nnc(-c2sc3ccc(C#N)cc3c2Cl)s1)C1CC(C)(C)NC(C)(C)C1	2.5	92	51 (≈ 22.7 µg/mL)	< 25	–
CN(c1nnc(-c2ccc(-c3cnn(C)c3)cc2C(F)(F)F)s1)C1CC(C)(C)NC(C)(C)C1	1.3	> 30000	–	–	–
CN(c1nnc(-c2c(O)cc(-c3cn[nH]c3)cc2Cl)s1)C1CC(C)(C)NC(C)(C)C1	2.5	3	220 (≈ 98.3 µg/mL)	–	microsomal CLint [14]: 116 µL/min/mg
CN(c1nnc(-c2cc(F)c(-c3cn[nH]c3)cc2Cl)s1)C1CC(C)(C)NC(C)(C)C1	3.2	48	34 (≈ 15.3 µg/mL)	54	Papp A→B [12]: 4 ×10⁻⁶ cm/s; concentration at 7 h [15]: 185 nM; Papp B→A [13]: 23 ×10⁻⁶ cm/s
COc1cc(-c2cnn(C)c2)ccc1-c1nnc(N(C)C2CC(C)(C)NC(C)(C)C2)s1	2.5	44	–	–	–
CN(c1nnc(-c2ccc(-c3cn[nH]c3)c(F)c2F)s1)C1CC(C)(C)NC(C)(C)C1	3	33	48 (≈ 20.8 µg/mL)	46	Papp A→B [12]: 3 ×10⁻⁶ cm/s; concentration at 4 h [16]: 2500 nM; concentration at 7 h [15]: 498 nM; fold change (FC) [17]: 1.6; concentration at 4 h [18]: 3600 nM; Papp B→A [13]: 8 ×10⁻⁶ cm/s
CN(c1nnc(-c2c(O)cc(-c3cn[nH]c3)c(F)c2F)s1)C1CC(C)(C)NC(C)(C)C1	2.7	3	150 (≈ 67.3 µg/mL)	–	Papp A→B [12]: 8 ×10⁻⁶ cm/s; Papp B→A [13]: 23 ×10⁻⁶ cm/s; microsomal CLint [14]: 67 µL/min/mg
CN(c1nnc(-c2ccc(-c3cn[nH]c3)cc2F)s1)C1CC(C)(C)NC(C)(C)C1	3.1	43	> 1000	59	Papp A→B [12]: 4 ×10⁻⁶ cm/s; concentration at 7 h [15]: 66 nM; Papp B→A [13]: 15 ×10⁻⁶ cm/s
COc1cc(-c2cn[nH]c2)ccc1-c1nnc(N(C)C2CC(C)(C)NC(C)(C)C2)s1	2.9	38	–	–	–
CN(c1nnc(-c2cc(-n3cccn3)ccc2O)s1)C1CC(C)(C)NC(C)(C)C1	2.3	1000	–	–	–
CN(c1nnc(-c2ccc(-n3cccn3)cc2O)s1)C1CC(C)(C)NC(C)(C)C1	2.8	170	–	–	–
CN(c1nnc(-c2ccc(-c3ccn(C)c(=O)c3)cc2OC(F)(F)F)s1)C1CC(C)(C)NC(C)(C)C1	2.2	900	–	–	–
CN(c1nnc(-c2sc3ccccc3c2Cl)s1)C1CC(C)(C)NC(C)(C)C1	2.8	530	240 (≈ 101 µg/mL)	20	–
CN(c1nnc(-c2cc3cc(C#N)ccc3s2)s1)C1CC(C)(C)NC(C)(C)C1	2.7	540	170 (≈ 70 µg/mL)	12	–
Cc1cc(-c2ccn(C)c(=O)c2)ccc1-c1nnc(N(C)C2CC(C)(C)NC(C)(C)C2)s1	2.6	1100	–	–	–
CN(c1nnc(-c2cc3ccccc3s2)s1)C1CC(C)(C)NC(C)(C)C1	1.7	4470	> 1000	< 3	–
